Assays:
[1] = biological target: p38 MAPKα isoform (MAPK14) (Homo sapiens (Human), UniProt Q16539); test: p38 MAPKα enzyme inhibition (FRET, Z-LYTE); type: biochemical
Procedure: The enzyme inhibitory activities of compounds disclosed herein were determined by FRET using synthetic peptides labelled with both donor and acceptor fluorophores (Z-LYTE, Invitrogen Ltd., Paisley, UK). The inhibitory activities of test compounds against the p38 MAPKα isoform (MAPK14: Invitrogen), were evaluated indirectly by determining the level of activation/phosphorylation of the down-stream molecule, MAPKAP-K2. […] The mixture was incubated for 1 hr at RT. Development reagent (protease, 5 μL) was added for 1 hr prior to detection in a fluorescence microplate reader (Varioskan® Flash, ThermoFisher Scientific). In all cases, the site-specific protease cleaves non-phosphorylated peptide only and eliminates the FRET signal. Phosphorylation levels of each reaction were calculated using the ratio of coumarin emission (donor) over fluorescein emission (acceptor), for which low ratios indicate high phosphorylation and high ratios indicate low phosphorylation levels.

[2] = biological target: p38MAPKγ (MAPK12) (Homo sapiens (Human), UniProt P53778); test: p38 MAPKγ enzyme inhibition (FRET, Z-LYTE); type: biochemical
Chain of p38MAPKγ (MAPK12) (P53778 whole entry): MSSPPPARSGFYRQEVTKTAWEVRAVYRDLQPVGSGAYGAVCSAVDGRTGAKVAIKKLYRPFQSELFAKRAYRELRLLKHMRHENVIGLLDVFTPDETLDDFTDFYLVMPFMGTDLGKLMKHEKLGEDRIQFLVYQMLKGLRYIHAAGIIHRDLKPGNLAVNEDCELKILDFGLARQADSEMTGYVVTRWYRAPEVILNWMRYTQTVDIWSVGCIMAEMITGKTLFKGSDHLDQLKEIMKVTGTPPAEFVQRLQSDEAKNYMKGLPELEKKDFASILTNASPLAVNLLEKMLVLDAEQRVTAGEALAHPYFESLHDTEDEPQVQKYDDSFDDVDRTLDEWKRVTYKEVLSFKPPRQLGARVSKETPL
Procedure: The enzyme inhibitory activities of compounds disclosed herein were determined by FRET using synthetic peptides labelled with both donor and acceptor fluorophores (Z-LYTE, Invitrogen Ltd., Paisley, UK). […] Development reagent (protease, 5 μL) was added for 1 hr prior to detection in a fluorescence microplate reader (Varioskan® Flash, Thermo Scientific). In all cases, the site-specific protease cleaves non-phosphorylated peptide only and eliminates the FRET signal. Phosphorylation levels of each reaction were calculated using the ratio of coumarin emission (donor) over fluorescein emission (acceptor), for which low ratios indicate high phosphorylation and high ratios indicate low phosphorylation levels.

[3] = biological target: GSK 3α enzyme isoform (Homo sapiens (Human), UniProt P49840); test: GSK 3α enzyme inhibition (FRET, Z-LYTE); type: biochemical; conditions: read-out: IC50 Values for Enzyme Inhibition GSK3α
Chain of GSK 3α enzyme isoform (P49840 whole entry, canonical isoform): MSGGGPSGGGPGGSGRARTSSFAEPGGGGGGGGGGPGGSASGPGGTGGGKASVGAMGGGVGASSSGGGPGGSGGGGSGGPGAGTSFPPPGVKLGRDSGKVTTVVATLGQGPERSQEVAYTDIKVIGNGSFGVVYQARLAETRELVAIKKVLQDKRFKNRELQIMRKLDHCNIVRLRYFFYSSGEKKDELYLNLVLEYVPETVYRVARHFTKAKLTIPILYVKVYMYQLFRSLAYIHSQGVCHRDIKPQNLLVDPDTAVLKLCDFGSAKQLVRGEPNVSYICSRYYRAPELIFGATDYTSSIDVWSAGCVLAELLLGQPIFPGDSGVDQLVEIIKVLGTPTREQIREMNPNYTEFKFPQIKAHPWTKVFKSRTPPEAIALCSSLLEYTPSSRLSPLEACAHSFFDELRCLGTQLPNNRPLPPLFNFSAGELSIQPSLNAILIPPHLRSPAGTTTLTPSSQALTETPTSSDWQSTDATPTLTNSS
Procedure: The enzyme inhibitory activities of compounds disclosed herein were determined by FRET using synthetic peptides labelled with both donor and acceptor fluorophores (Z-LYTE, Invitrogen Ltd., Paisley, UK).
The inhibitory activities of test compounds against the GSK 3α enzyme isoform (Invitrogen), were evaluated by determining the level of activation/phosphorylation of the target peptide.
The GSK3-α protein (500 ng/mL, 2.5 μL) was mixed with the test compound (2.5 μL at either 4 μg/mL, 0.4 μg/mL, 0.04 μg/mL, or 0.004 μg/mL) for 2 hr at RT. The FRET peptide (8 μM, 2.5 μL), which is a phosphorylation target for GSK3α, and ATP (40 μM, 2.5 μL) were then added to the enzyme/compound mixture and the resulting mixture incubated for 1 hr. Development reagent (protease, 5 μL) was added for 1 hr prior to detection in a fluorescence microplate reader (Varioskan® Flash, ThermoFisher Scientific).
In all cases, the site-specific protease cleaves non-phosphorylated peptide only and eliminates the FRET signal. Phosphorylation levels of each reaction were calculated using the ratio of coumarin emission (donor) over fluorescein emission (acceptor), for which low ratios indicate high phosphorylation and high ratios indicate low phosphorylation levels.

[4] = test system: d-U937 cells; test: Cell viability: MTT assay; type: cell-based, human; conditions: 1 μg/mL
Procedure: Differentiated U937 cells were pre-incubated with each test compound (final concentration 1 μg/mL or 10 μg/mL in 200 μL media indicated below) under two protocols: the first for 4 hr in 5% FCS RPMI1640 media and the second in 10% FCS RPMI1640 media for 24 h. The supernatant was replaced with new media (200 μL) and MTT stock solution (10 μL, 5 mg/mL) was added to each well. After incubation for 1 hr the media were removed, DMSO (200 μL) was added to each well and the plates were shaken lightly for 1 hr prior to reading the absorbance at 550 nm. The percentage loss of cell viability was calculated for each well relative to vehicle (0.5% DMSO) treatment. Consequently an apparent increase in cell viability for drug treatment relative to vehicle is tabulated as a negative percentage.

[5] = test system: ICAM-1 expression in BEAS2B cells; test: Poly I:C-induced ICAM-1 expression in BEAS2B cells; type: cell-based, human; conditions: Homo sapiens, BEAS-2B, read-out: PolyIC/ICAM1 IC50 (BEAS2B)
Procedure: Poly I:C was used in these studies as a simple, RNA virus mimic. Poly I:C-Oligofectamine mixture (1 μg/mL Poly I:C, ±2% Oligofectamine, 25 μL; Invivogen Ltd., San Diego, Calif., and Invitrogen, Carlsbad, Calif., respectively) was transfected into BEAS2B cells (human bronchial epithelial cells, ATCC). Cells were pre-incubated with final concentrations of test compounds for 2 hr and the level of ICAM-1 expression on the cell surface was determined by cell-based ELISA. At a time point 18 hr after poly I:C transfection, cells were fixed with 4% formaldehyde in PBS (100 μL) and then endogenous peroxidase was quenched by the addition of washing buffer (100 μL, 0.05% Tween in PBS: PBS-Tween) containing 0.1% sodium azide and 1% hydrogen peroxide. Cells were washed with wash-buffer (3×200 μL). and after blocking the wells with 5% milk in PBS-Tween (100 μL) for 1 hr, the cells were incubated with anti-human ICAM-1 antibody (50 μL; Cell Signaling Technology, Danvers, Mass.) in 1% BSA PBS overnight at 4° C.
The cells were washed with PBS-Tween (3×200 μL) and incubated with the secondary antibody (100 μL; HRP-conjugated anti-rabbit IgG, Dako Ltd., Glostrup, Denmark). The cells were then incubated with of substrate (50 μL) for 2-20 min, followed by the addition of stop solution (50 μL, 1N H2SO4). The ICAM-1 signal was detected by reading […] the absorbance at 450 nm against a reference wavelength of 655 nm using a spectrophotometer. The cells were then washed with PBS-Tween (3×200 μL) and total cell numbers in each well were determined by reading absorbance at 595 nm after Crystal Violet staining (50 μL of a 2% solution in PBS) and elution by 1% SDS solution (100 μL) in distilled water. The measured OD 450-655 readings were corrected for cell number by dividing with the OD595 reading in each well. The inhibition of ICAM-1 expression was calculated at each concentration of test compound by comparison with vehicle control.

Chain of p38 MAPKα isoform (MAPK14) (Q16539 whole entry, canonical isoform): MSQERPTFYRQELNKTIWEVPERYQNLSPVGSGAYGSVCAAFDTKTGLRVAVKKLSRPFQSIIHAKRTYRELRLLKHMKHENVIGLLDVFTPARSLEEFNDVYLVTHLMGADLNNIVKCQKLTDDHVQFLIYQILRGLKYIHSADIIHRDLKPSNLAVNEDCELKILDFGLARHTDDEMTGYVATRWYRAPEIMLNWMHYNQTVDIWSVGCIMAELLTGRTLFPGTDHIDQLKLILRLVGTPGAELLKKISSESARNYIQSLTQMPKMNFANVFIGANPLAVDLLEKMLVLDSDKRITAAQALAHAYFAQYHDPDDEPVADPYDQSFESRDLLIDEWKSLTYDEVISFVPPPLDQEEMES

SMILES: Cc1ccc(-n2nc(C(C)(C)C)cc2NC(=O)Nc2ccc(Oc3ccnc(Nc4ccccc4F)n3)c3ccccc23)cc1 [Example 4, 1-(3-(tert-butyl)-1-(p-tolyl)-1H-pyrazol-5-yl)-3-(4-((2-((2-fluorophenyl)amino)pyrimidin-4-yl)oxy)naphthalen-1-yl)urea]
- IC50 [1]: 165 nM
- IC50 [2]: 8200 nM
- IC50 [3]: > 16600 nM
- MTT Assay Cell viability at time point in d-U937 Cells ([4]; 4 h): −ve (−ve and +ve indicate the value is below and above respectively, the no significant effect threshold defined as 30% inhibition at 1 μg/mL at the time point indicated)
- MTT Assay Cell viability at time point in d-U937 Cells ([4]; 24 h): −ve (−ve and +ve indicate the value is below and above respectively, the no significant effect threshold defined as 30% inhibition at 1 μg/mL at the time point indicated)
- IC50 [5]: 144 nM

SMILES: Cc1ccc(-n2nc(C(C)(C)C)cc2NC(=O)Nc2ccc(Oc3ccnc(Nc4cc(C)ccc4C)n3)c3ccccc23)cc1 [Example 10, 1-(3-(tert-butyl)-1-(p-tolyl)-1H-pyrazol-5-yl)-3-(4-((2-((2,5-dimethylphenyl)amino)pyrimidin-4-yl)oxy)naphthalen-1-yl)urea]
- IC50 [1]: 195 nM
- IC50 [2]: > 16300 nM
- IC50 [3]: > 16300 nM
- MTT Assay Cell viability at time point in d-U937 Cells ([4]; 4 h): −ve (−ve and +ve indicate the value is below and above respectively, the no significant effect threshold defined as 30% inhibition at 1 μg/mL at the time point indicated)
- MTT Assay Cell viability at time point in d-U937 Cells ([4]; 24 h): −ve (−ve and +ve indicate the value is below and above respectively, the no significant effect threshold defined as 30% inhibition at 1 μg/mL at the time point indicated)
- IC50 [5]: 43 nM

SMILES: Cc1ccc(Nc2nccc(Oc3ccc(NC(=O)Nc4cc(C(C)(C)C)nn4-c4ccc(C)cc4)c4ccccc34)n2)cc1 [Example 11, 1-(3-(tert-butyl)-1-(p-tolyl)-1H-pyrazol-5-yl)-3-(4-((2-(p-tolylamino)pyrimidin-4-yl)oxy)naphthalen-1-yl)urea]
- IC50 [1]: 356 nM
- IC50 [2]: > 16700 nM
- IC50 [3]: > 16700 nM
- MTT Assay Cell viability at time point in d-U937 Cells ([4]; 4 h): −ve (−ve and +ve indicate the value is below and above respectively, the no significant effect threshold defined as 30% inhibition at 1 μg/mL at the time point indicated)
- MTT Assay Cell viability at time point in d-U937 Cells ([4]; 24 h): −ve (−ve and +ve indicate the value is below and above respectively, the no significant effect threshold defined as 30% inhibition at 1 μg/mL at the time point indicated)
- IC50 [5]: 11 nM

SMILES: Cc1ccc(-n2nc(C(C)(C)C)cc2NC(=O)Nc2ccc(Oc3ccnc(Nc4cccc(C)c4)n3)c3ccccc23)cc1 [Example 12, 1-(3-(tert-butyl)-1-(p-tolyl)-lH-pyrazol-5-yl)-3-(4-((2-(m-tolylamino)pyrimidin-4-yl)oxy)naphthalen-1-yl)urea]
- IC50 [1]: 169 nM
- IC50 [2]: > 16700 nM
- IC50 [3]: > 16700 nM
- MTT Assay Cell viability at time point in d-U937 Cells ([4]; 4 h): −ve (−ve and +ve indicate the value is below and above respectively, the no significant effect threshold defined as 30% inhibition at 1 μg/mL at the time point indicated)
- MTT Assay Cell viability at time point in d-U937 Cells ([4]; 24 h): −ve (−ve and +ve indicate the value is below and above respectively, the no significant effect threshold defined as 30% inhibition at 1 μg/mL at the time point indicated)
- IC50 [5]: 2.7 nM

SMILES: Cc1ccc(-n2nc(C(C)(C)C)cc2NC(=O)Nc2ccc(Oc3ccnc(Nc4cccc(Cl)c4)n3)c3ccccc23)cc1 [Example 13, 1-(3-(tert-butyl)-1-(p-tolyl)-1H-pyrazol-5-yl)-3-(4-((2-((3-chlorophenyl)amino)pyrimidin-4-yl)oxy)naphthalen-1-yl)urea]
- IC50 [1]: 262 nM
- IC50 [2]: > 16200 nM
- IC50 [3]: > 16200 nM
- MTT Assay Cell viability at time point in d-U937 Cells ([4]; 4 h): −ve (−ve and +ve indicate the value is below and above respectively, the no significant effect threshold defined as 30% inhibition at 1 μg/mL at the time point indicated)
- MTT Assay Cell viability at time point in d-U937 Cells ([4]; 24 h): −ve (−ve and +ve indicate the value is below and above respectively, the no significant effect threshold defined as 30% inhibition at 1 μg/mL at the time point indicated)
- IC50 [5]: 3 nM

SMILES: COc1cccc(Nc2nccc(Oc3ccc(NC(=O)Nc4cc(C(C)(C)C)nn4-c4ccc(C)cc4)c4ccccc34)n2)c1 [Example 14, 1-(3-(tert-butyl)-1-(p-tolyl)-1H-pyrazol-5-yl)-3-(4-((2-((3-methoxyphenyl)amino)pyrimidin-4-yl)oxy)naphthalen-1-yl)urea]
- IC50 [1]: 119 nM
- IC50 [2]: > 16300 nM
- IC50 [3]: > 16300 nM
- MTT Assay Cell viability at time point in d-U937 Cells ([4]; 4 h): −ve (−ve and +ve indicate the value is below and above respectively, the no significant effect threshold defined as 30% inhibition at 1 μg/mL at the time point indicated)
- MTT Assay Cell viability at time point in d-U937 Cells ([4]; 24 h): −ve (−ve and +ve indicate the value is below and above respectively, the no significant effect threshold defined as 30% inhibition at 1 μg/mL at the time point indicated)
- IC50 [5]: 9.8 nM

SMILES: Cc1ccc(-n2nc(C(C)(C)C)cc2NC(=O)Nc2ccc(Oc3ccnc(Nc4cccc(F)c4)n3)c3ccccc23)cc1 [Example 15, 1-(3-(tert-butyl)-1-(p-tolyl)-1H-pyrazol-5-yl)-3-(4-((2-((3-fluorophenyl)amino)pyrimidin-4-yl)oxy)naphthalen-1-yl)urea]
- IC50 [1]: 155 nM
- IC50 [2]: > 16600 nM
- IC50 [3]: > 16600 nM
- MTT Assay Cell viability at time point in d-U937 Cells ([4]; 4 h): −ve (−ve and +ve indicate the value is below and above respectively, the no significant effect threshold defined as 30% inhibition at 1 μg/mL at the time point indicated)
- MTT Assay Cell viability at time point in d-U937 Cells ([4]; 24 h): −ve (−ve and +ve indicate the value is below and above respectively, the no significant effect threshold defined as 30% inhibition at 1 μg/mL at the time point indicated)
- IC50 [5]: 9.3 nM

From patent publication US9724347B2, “1-pyrazolyl-3-(4-((2-anilinopyrimidin-4-yl)oxy)napththalen-1-yl) ureas as P38 MAP knase inhibitors” (Respivert Ltd., priority 2011, dated 2017)
